In US20180251425A1, “2,3,5 TRISUBSTITUTED PYRROLE DERIVATIVES AS TOPOISOMERASE INHIBITORS AND THERAPEUTIC USES THEREOF” (UNIVERSITY OF MYSORE, priority 2015, published 2018):

Columns and labels:
Molt4 = assay: Cytotoxicity (MTT / trypan blue) in Molt4 cells; format: cell-based; conditions: Homo sapiens, MOLT-4, read-out: Cytotoxicity IC 50 in μM (Cell lines) Molt4
Experimental: Human cancer cell lines, K562, MCF7, HeLa and HEK 293T were purchased from National Centre for Cell Science, Pune, India. Cells were grown in RPMI 1640/MEM/DMEM supplemented with 10% heat-inactivated fetal bovine serum (FBS), 100 U/mL of Penicillin, and 100 μg of streptomycin/mL and incubated at 37° C. in a humidified atmosphere containing 5% CO2.
Nalm6, Molt4 and Reh cells were provided by Dr. Sathees C. Raghavan, Department of Biochemistry, IISc, Bangalore. The cells were grown under the similar culture conditions as mentioned above.
The human T cell leukemia cell line Molt4, Human acute lymphoblastic leukemia (ALL) cell line Nalm6, Human acute myelocytic leukemia (AML) cell line Reh, chronic myelogenous leukemia (CML) cell line K562, Human breast adenocarcinoma cell lines like MCF7 and human kidney cell line HEK 293T (Human embryonic kidney cell line) were selected for the purpose of preliminary anticancer screening of newly synthesized compounds (ASR1 to ASR15). To check the cytotoxicity, trypan blue dye exclusion assays, MTT assay were employed as described earlier Further, Cell cycle analysis, Mitochondrial membrane potential, Annexin-V FITC staining assay were also performed in order to understand the mode of cell death after treatment with ASR6. Further, ASR6 was also tested for its ability to inhibit topoisomerase I and II activity in vitro.
Cytotoxic effect of the newly synthesized compounds against leukemic cells was assessed using 3-(4, 5-dimethyl-2-yl02, 5-diphenyl tetrazolium bromide (MTT) assay. After exposure of compound at different concentration (0.01, 0.1, 0.5, 1, 10, 50 and 100 μM) cells were harvested and transferred into 96 well plate, MTT (5 mg/ml) was added and incubate at 37° C. for 4 h and formazan crystals were dissolved by adding solubilizing agent (10% SDS and 50% dimethyl formamide) for 1 h, finally plate was read at 570 nm (Bio-Rad, USA). Results were represented as inhibition of percentage of cell proliferation in bar diagram (n=3) (FIGS. 1 A, C, E and G).
To determine the growth inhibitory activity of the drug, 0.5×10^5 cell/ml were plated in 24 well (Biofil, USA.) in 1 ml of complete medium and treated with various concentration of the compound to test, cells were stained with 0.4% trypan blue and counted on a hemocytometer after treatment with compounds at 48 and 72 h time point. Results were represented as number of viable cells/ml in bar diagram (FIGS. 1 B, D, F, and H) (n=3).

Molt4 cells = assay: Mitochondrial membrane potential assay (JC-1); format: cell-based, Human; conditions: Molt4 cells, 0.1, 0.25 and 0.5 μM, 48 h
Experimental: Molt4 cells were seeded in 12 well plate (0.5×10^5 cells/ml), treated with different concentration of ASR6 for 48 h, (DMSO treated cells was used as vehicle control), washed with 1× phosphate buffered saline and stained with JC-1 dye (5,5′,6,6′-Tetrachloro-1,1′,3,3′-tetraethylbenzimidazolo carbocyanine iodide (0.5 μg/ml) (Calbiochem, USA) in 1 ml of media, incubated at 37° C. for 30 min. Samples were washed with phosphate buffered saline and finally resuspended the cell pellet in 300 μl of 1× phosphate buffered saline and acquired (FACSVerse™, BD Biosciences, USA) using Cell Quest Pro Software. Minimum of 10,000 cells were acquired per sample and 2, 4-Dinitrophenol (2, 4-DNP) used as positive control. Results were analyzed Flowing Software (Version 2.5) and data were presented.

[1] = biological target: T1, recombinant human DNA topoisomerase I (Homo sapiens, UniProt P11387); assay: Topoisomerase I DNA relaxation assay; format: biochemical; conditions: 0, 10, 25, 50 and 100 μM, supercoiled pBS-SK+ plasmid, 37° C. 30 min
T1 construct: purchased TopoGEN; Inc
T1 sequence (P11387 1-765): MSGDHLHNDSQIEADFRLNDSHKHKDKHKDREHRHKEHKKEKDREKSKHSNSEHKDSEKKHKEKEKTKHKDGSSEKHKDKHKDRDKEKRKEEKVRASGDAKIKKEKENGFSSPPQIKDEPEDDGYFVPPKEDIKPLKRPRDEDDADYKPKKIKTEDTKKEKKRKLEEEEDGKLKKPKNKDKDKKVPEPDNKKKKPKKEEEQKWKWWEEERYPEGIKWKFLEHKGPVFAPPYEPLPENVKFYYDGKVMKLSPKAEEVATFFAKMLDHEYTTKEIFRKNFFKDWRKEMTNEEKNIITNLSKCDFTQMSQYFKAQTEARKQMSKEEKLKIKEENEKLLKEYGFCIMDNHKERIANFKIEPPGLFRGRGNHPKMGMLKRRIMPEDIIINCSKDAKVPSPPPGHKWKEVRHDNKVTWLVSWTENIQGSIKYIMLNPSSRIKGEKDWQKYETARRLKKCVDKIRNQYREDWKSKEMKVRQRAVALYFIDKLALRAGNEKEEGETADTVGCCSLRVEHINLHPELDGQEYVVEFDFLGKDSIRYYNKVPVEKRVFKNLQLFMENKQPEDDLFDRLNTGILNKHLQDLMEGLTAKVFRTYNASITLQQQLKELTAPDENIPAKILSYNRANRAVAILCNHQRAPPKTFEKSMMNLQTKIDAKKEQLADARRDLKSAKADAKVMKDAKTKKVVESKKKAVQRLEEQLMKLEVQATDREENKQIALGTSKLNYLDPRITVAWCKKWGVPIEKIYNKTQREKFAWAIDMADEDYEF
Experimental: In order to determine the ability of ASR6 of topoisomerase I activity assay was performed, in a reaction mixture containing supercoiled plasmid DNA (pBS-SK+) was isolated using Gen Elute plasmid miniprep kit (Sigma Aldrich), according to manual instructions. ˜200 ng plasmid and two units of recombinant human DNA topoisomerase I (TopoGEN. Inc) along with the different concentrations of ASR6 (0, 10, 25, 50 and 100 μM) was added at RT for 5 min; equal amount of DMSO was used as vehicle control. Reaction was carried out at 37° C. for 30 min in a relaxation buffer 1× topoI buffer (50 mM Tris-HCl (pH 8.0), 10 mM NaCl, 10 mM MgCl2, 5 mM ATP, 0.5 mM dithiothreitol and 30 μg BSA/ml) and reactions were terminated by adding 5× stop buffer containing 5% sarkosyl, 0.0025% bromophenol blue, 25% glycerol. The DNA samples were electrophoresed on 1% agarose gel at 45 volts for 4 h with 0.5×TBE (Tris-borate-EDTA). The gels were stained for 30 min in milli Q water containing ethidium bromide (0.5 mg/ml) followed by distaining for 30 min in milli Q water and images were taken (FIG. 5). […] Topotecan (Topo I inhibitor) was used as positive control for topoisomerase I.

For `CCOC(=O)c1[nH]c(-c2ccc(Cl)cc2)cc1-c1cccnc1` [ASR6, Ethyl 5-(4-chlorophenyl)-3-(pyridin-3-yl)-1H-pyrrole-2-carboxylate], the IC50 (Molt4) was 0.195 µM, the Mitochondrial membrane potential (Molt4 cells) was “reduction in mitochondrial membrane potential” and the “Inhibition of topoisomerase I activity (DNA relaxation)” value [1] was “does not inhibit topoisomerase I activity”.
